Test results from patent US8241863B2, “Identification of an evolutionarily conserved pathway mediating transrepression of inflammatory response genes by nuclear receptors” (The Regents of the University of California, priority 2005, dated 2012).
Entries after “also recorded” stand apart in the source; their conditions may differ.

Legend:
[1] = test system: ABCA1 gene; test: ABCA1 expression in primary macrophages by real-time PCR; assay type: cell-based, mouse; details: oxysterols 5 μM, 18 hours; less potently than GW3965 1 μM for the first three (FIG. 14 lower)
Protocol: (§1) Primary mouse peritoneal macrophages were treated in the upper panel with LPS and the indicated ligands and harvested for real time PCR analysis of iNOS expression 6 h later. In the lower panel, cells were treated with the indicated ligands for 18 hours and harvest for real time PCR analysis of ABCA1 expression. GW3965 was used at a concentration of 1 μM. The oxysterols were used at a concentration of 5 μM.

[2] = test system: iNOS gene; test: iNOS expression in LPS-treated primary peritoneal macrophages by real-time PCR, LXR ligands; assay type: cell-based, mouse; details: for repression of iNOS activation: oxysterols 5 μM, LPS, 6 h, less potently than GW3965 1 μM where active (FIG. 14 upper)
Protocol: Thioglycollate-elicited macrophages were isolated by peritoneal lavage 3 days following peritoneal injection of 2.5 ml 3% thioglycollate (DIFCO). Cells were plated in RPMI medium 1640 and 10% fetal bovine serum. After 5 h the medium was removed and cells were fed with fresh medium. For RNAi experiments, smart-pool siRNAs (Dharmacon) against NCoR and Ubc9 were transfected into primary macrophages using lipofectamine 2000 (Invitrogen), incubated for 48 h and validated by Q-PCR and Western Blotting. LPS (Sigma) was used at a concentration of 1 μg/ml and GW3965 (obtained under MTA from GlaxoSmithKline) was used at a concentration of 1 μM.
Total RNA (isolated by RNeasy kit, Qiagen) was prepared from primary macrophages pretreated with 1 μM GW3965 (2 h) before 1 μg/ml LPS stimulation (6 h). One microgram of total RNA was used for CDNA synthesis, and 1 μl of cDNA was used for real time PCR using iNOS or inflammatory-gene-specific primers.
(§2) Macrophages were transfected with siRNA for 48 h and then stimulated with LPS ([…]) for 6 h in the absence or presence of LXR ligand (GW3965, 1 μM). iNOS expression in peritoneal macrophages was evaluated by real-time quantitative PCR and iNOS promoter activation in RAW264.7 was evaluated by luciferase assay. […] Primary macrophages were treated with LPS ([…]) with or without the LXR ligand (GW3965, 1 μM) for 1 h.
as §1

[3] = test system: iNOS promoter; test: Chromatin immunoprecipitation on the iNOS promoter in primary macrophages or RAW 264.7 cells; assay type: cell-based, mouse; details: primary macrophages, ligand 1 h then LPS 1 h (FIG. 1e)
Protocol: 2-4×10^6 primary macrophages or RAW 264.7 cells were used per experimental point. Cells were pre-treated with 1 μM Ro (1 h) and stimulated with 1 μg/ml LPS (1 h). Cross-linking was carried out for 10 min with 1% formaldehyde and cells lysed with 1% SDS, 10 mM EDTA, 50 mM Tris-HCl pH 8.1 and sonicated 10 sec-5 times. Five μg antibody conjugated to sheep anti-rabbit dyna-beads (Dyna1) were used for immunoprecipitations. For PPARγ, 2 μg of H-100 plus 3 μg of PPARγ antibody from Geneka were used in combination. Alternatively, anti-HA protein A sepharose beads (Covance) were used for wild-type and mutant HA-tagged PPARγ proteins. HDAC3 and p65 antibodies were from SantaCruz. NCoR antibody was from Affinity Bioreagents, Inc. Beads were washed twice with wash buffer: 150 mM NaCl, 0.1% SDS, 1% Triton X-100, 2 mM EDTA, 20 mM Tris-HCl and subsequently with buffer: 0.25 M LiCl, 1% NP-40, 1% deoxycholate, 1 mM EDTA, 10 mM Tris-HCl. Beads were eluted in 300 μl of TE with 1% SDS and 0.1 M NaCO3. Elute samples and 10% inputs were reversed at 65° C. for a minimum of 6 h. […]
In FIG. 1e, primary macrophages were pretreated with Ro or GW0072 for 1 h followed by 1 h LPS induction and formaldehyde crosslinking. A 150 base pair region of the iNOS promoter spanning the most proximal NF-κB site to the start of transcription was analyzed by ChIP assays using the indicated antibodies.

[4] = biological target: T1, PPARγ (Homo sapiens, UniProt P37231); details: cited from earlier work
T1 sequence (P37231 1-505): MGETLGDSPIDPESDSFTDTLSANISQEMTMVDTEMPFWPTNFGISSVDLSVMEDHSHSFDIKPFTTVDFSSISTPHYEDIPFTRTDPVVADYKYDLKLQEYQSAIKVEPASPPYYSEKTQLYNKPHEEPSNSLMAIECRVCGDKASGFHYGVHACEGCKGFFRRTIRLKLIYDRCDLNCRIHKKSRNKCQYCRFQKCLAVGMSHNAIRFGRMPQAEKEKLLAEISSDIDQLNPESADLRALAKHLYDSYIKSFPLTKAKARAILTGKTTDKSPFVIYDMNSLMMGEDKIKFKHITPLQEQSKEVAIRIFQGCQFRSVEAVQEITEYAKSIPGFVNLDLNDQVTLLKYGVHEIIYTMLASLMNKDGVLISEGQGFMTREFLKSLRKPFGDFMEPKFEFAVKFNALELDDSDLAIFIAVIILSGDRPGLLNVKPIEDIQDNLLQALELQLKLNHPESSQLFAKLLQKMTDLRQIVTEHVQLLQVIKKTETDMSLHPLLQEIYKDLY

[5] = test system: iNOS gene; test: iNOS mRNA in LPS-stimulated primary macrophages (Northern blot / semi-quantitative RT-PCR), PPARγ ligands; assay type: cell-based, mouse; details: as little as 10 nM Trichostatin A 1 h, then 1 μM Ro 2 h, LPS 6 h (FIG. 1c)
Protocol: Primary macrophages were elicited by intra-peritoneal injection with 2 ml of thioglycollate. […] For RNAi experiments, smart-pool siRNAs (Dharmacon) against PIAS1, Ubc9, HDAC3, HDAC7 or control non-specific and previously validated NCoR were transected using lipofectamine 2000 (Invitrogen) into primary macrophages and incubated for 48 h.
Total RNA (Trizol method) was prepared from thioglycollate-elicited primary macrophages pre-treated with 1 μM Ro (2 h) prior to 1 μg/ml LPS stimulation (6 h). One μg of total RNA was used for cDNA synthesis using the First-strand synthesis RT system (Invitrogen). Two μl of cDNA was used for PCR using iNOS or inflammatory gene specific primers amplifying a 0.7 kb region of cDNA. GAPDH cDNA samples were carried out for 22 to 25 cycles. […]
Total RNA was analyzed for iNOS and GAPDH mRNA by Northern Blotting. […] Cells were stimulated with LPS for 6 h and total RNA was analyzed as in FIG. 1a. […] A 150 base pair region of the iNOS promoter spanning the most proximal NF-κB site to the start of transcription was analyzed by ChIP assays using the indicated antibodies. […]
In FIG. 2a, CHIP analysis of NCoR and Ubc5 occupancy on the iNOS promoter was performed in primary macrophages stimulated with LPS for the indicated times in the presence or absence of Ro. In FIG. 2b, Semi-quantitative RT-PCR analysis of iNOS and GAPDH mRNA in primary macrophages. […]

[6] = test system: Ccl3, Ccl7, Cxcl10 and Tgtp; test: Microarray analysis of primary macrophages treated with LPS with or without PPARγ agonist; assay type: cell-based, mouse; details: LPS (FIG. 2e)
Protocol: In FIG. 2a, CHIP analysis of NCoR and Ubc5 occupancy on the iNOS promoter was performed in primary macrophages stimulated with LPS for the indicated times in the presence or absence of Ro. In FIG. 2b, Semi-quantitative RT-PCR analysis of iNOS and GAPDH mRNA in primary macrophages. Cells were treated with Ro 1 h before (pre) or 1 h following (post) stimulation with LPS. RNA was isolated for analysis 6 h after LPS treatment. In FIG. 2c, ChIP analysis for p65 and PPARγ on iNOS and CD36 promoters in primary macrophages was performed as described in FIG. 2a. In FIG. 2d, ChIP analysis of the iNOS promoter for NCoR and PPARγ was carried out in primary macrophages 1 h following LPS stimulation. Ro was given 1 h before (pre) or 1 h after (post) stimulation. Cells were transfected with control or NCoR-specific siRNAs 48 h prior to LPS stimulation. In FIG. 2e, Expression data derived from microarray analysis of primary macrophages treated with LPS in the presence or absence of the PPARγ-specific agonist GW7845. In FIG. 2f, ChIP analysis for NCoR and PPARγ on the indicated promoters was carried out using primary macrophages as in 2d.

[7] = test system: iNOS promoter; test: ChIP for LXR and NCoR on the iNOS promoter in primary macrophages, LXR ligand; assay type: cell-based, mouse
Protocol: For each experimental condition, 20×10^6 primary macrophages were used. Cells were pre-treated with 1 μM GW3965 (1 h) and stimulated with 1 μg/ml LPS (1 h) before crosslinking for 10 min with 1% formaldehyde. Crosslinked adducts were resuspended and sonicated resulting in DNA fragments of 300-900 bp. Anti-LXR (Calbiochem) or anti-NCoR (Affinity Bioreagents) antibodies were used. Protein-bound, immunoprecipitated DNA was reverse cross-linked at 65° C. overnight and then purified using PCR purification Kit (Qiagen). A 150-bp region of the iNOS promoter was amplified by real time PCR spanning the most proximal NF-κB site to the start of transcription.
as §2

[8] = test system: iNOS promoter; test: iNOS-luciferase reporter in RAW264.7 cells transfected with LXRα; assay type: cell-based, mouse; details: RAW264.7, LXRα
Protocol: The RAW264.7 mouse macrophage cell line was transiently transfected with iNOS or ABCA1 promoters directing luciferase expression, pCMXhLYRα, FLAGhLXRβ, and their mutants. For transrepression experiments, wildtype LXRα and LXRβ or LXR mutants were transfected at a 3:1 (LXR to reporter plasmid) ratio using Superfect reagent (Qiagen). For siRNA experiments, RAW264.7 cells were transfected with siRNAs (40 nM) using Superfect reagent for 48 h before activation with LXR ligands and LPS induction. […]
Macrophages were transfected with siRNA for 48 h and then stimulated with LPS ([…]) for 6 h in the absence or presence of LXR ligand (GW3965, 1 μM). iNOS expression in peritoneal macrophages was evaluated by real-time quantitative PCR and iNOS promoter activation in RAW264.7 was evaluated by luciferase assay. […]

[9] = test system: iNOS promoter; test: iNOS-luciferase reporter transrepression in RAW264.7 cells transfected with PPARγ; assay type: cell-based, mouse
Excerpt: For transrepression experiments, wild-type PPARγ or PPARγ mutants were transfected at a 3:1 ratio to reporter plasmids using Superfect reagent (Qiagen). […] Transfection experiments evaluated each experimental condition in triplicate and results were expressed as mean +/− standard deviation. Each transfection experiment was independently repeated at least three times. Statistical analysis was preformed using Student's t-test with P<0.01 considered statistically significant.
In FIG. 1b, RAW264.7 cells were transfected with the indicated siRNAs and PPARγ expression and iNOS-luciferase reporter plasmids. Cells were treated with LPS and/or Ro as in panel a prior to assay of luciferase activity. […] In FIG. 1d, RAW264.7 cells were transfected with the indicated siRNAs and PPARγ expression and iNOS-luciferase reporter plasmids. Cells were treated with LPS and/or Ro as in FIG. 1a, prior to assay of luciferase activity. […] In FIG. 1f, RAW264.7 cells were transfected with the indicated siRNAs and PPARγ expression and iNOS-luciferase reporter plasmids and stimulated with LPS for 6 h prior to assay of luciferase activity.
In FIG. 4a, RAW264.7 cells were transfected with the iNOS reporter, PPARγ expression plasmid and Ubc9-siRNA. 36 h post-transfection cells were pretreated with Ro for 1 h and LPS for 6 h prior to assay of luciferase activity. […]

[10] = biological target: T2, PPARγ (Mus musculus, UniProt P37238); test: Transactivation assay on positively regulated PPARγ-dependent promoter (Aox-TK luciferase) in RAW264.7 cells; assay type: cell-based
T2 construct: expressed in transfected cells; host or cells: RAW264.7 mouse macrophage cell line
T2 sequence (P37238 1-475 isoform P37238-2): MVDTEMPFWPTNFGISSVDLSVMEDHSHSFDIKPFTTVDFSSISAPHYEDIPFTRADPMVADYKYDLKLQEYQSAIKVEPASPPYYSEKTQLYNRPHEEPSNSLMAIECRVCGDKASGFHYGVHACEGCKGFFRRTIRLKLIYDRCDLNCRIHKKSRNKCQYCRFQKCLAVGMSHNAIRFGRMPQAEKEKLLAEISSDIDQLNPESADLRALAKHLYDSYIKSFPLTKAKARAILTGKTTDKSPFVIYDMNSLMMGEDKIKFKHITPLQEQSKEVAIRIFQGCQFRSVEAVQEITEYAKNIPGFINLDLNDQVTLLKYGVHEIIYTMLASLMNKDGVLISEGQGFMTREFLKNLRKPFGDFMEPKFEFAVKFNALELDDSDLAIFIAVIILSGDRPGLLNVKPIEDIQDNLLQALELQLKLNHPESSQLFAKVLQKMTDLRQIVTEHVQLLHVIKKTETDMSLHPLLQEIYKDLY
Protocol: The RAW264.7 mouse macrophage cell line was transiently transfected with plasmids containing the iNOS or Aox-TK promoters directing luciferase expression as previously described 22. For transrepression experiments, wild-type PPARγ or PPARγ mutants were transfected at a 3:1 ratio to reporter plasmids using Superfect reagent (Qiagen). For siRNA experiments, RAW264.7 cells were transfected with siRNAs (40 nM) using Superfect reagent for 48 h prior to activation with PPARγ ligands and LPS induction. […] Transfection experiments evaluated each experimental condition in triplicate and results were expressed as mean +/− standard deviation. Each transfection experiment was independently repeated at least three times. Statistical analysis was preformed using Student's t-test with P<0.01 considered statistically significant.
In FIG. 5b, in vivo detection of SUMOylation of PPARγ was performed in HeLa cells transfected with myc-tagged Sumo1 and HA-tagged WT-PPARγ or PPARγ^K365R. Cells were immunoprecipitated for HA tag and blotted for myc tag. NT refers to non-transfected cells. In FIG. 5c, RAW264.7 cells were transfected with wild-type (WT) and mutant HA-PPARγ and Flag(FL)-tagged PIAS1 expression plasmids and treated with Ro for 0, 10, 30 or 60 min. Whole cell extracts were immunoprecipitated for HA tag followed by western blotting for FL-PIAS1. […]

C[C@H](CCCC(C)(C)O)[C@H]1CC[C@H]2[C@@H]3CC=C4C[C@@H](O)CC[C@]4(C)[C@H]3CC[C@]12C [25 hydroxycholesterol]
induction of ABCA1 expression [1]: activate ABCA1
repression of iNOS activation [2]: do not repress iNOS activation

C[C@@H](CO)CCC[C@@H](C)[C@H]1CC[C@H]2[C@@H]3CC=C4C[C@@H](O)CC[C@]4(C)[C@H]3CC[C@]12C [27-hydroxycholesterol]
induction of ABCA1 expression [1]: activate ABCA1
repression of iNOS activation [2]: do not repress iNOS activation

CC(C)CC[C@@H](O)[C@@H](C)[C@H]1CC[C@H]2[C@@H]3CC=C4C[C@@H](O)CC[C@]4(C)[C@H]3CC[C@]12C [22R-hydroxycholesterol]
induction of ABCA1 expression [1]: induce ABCA1 expression
repression of iNOS activation [2]: repress iNOS activation

CCCCCCCC1SC(CC(=O)N(Cc2ccccc2)Cc2ccccc2)C(=O)N1CCCCc1ccc(C(=O)O)cc1 (centres unmarked) [GW0072]
NCoR and HDAC3 occupancy of iNOS promoter after LPS stimulation [3]: both NCoR and HDAC3 remained on the iNOS promoter
dissociation of NCoR from PPARγ [4]: effective at dissociating NCoR from PPARγ; also recorded: disrupts direct interactions between NCoR and PPARγ
stimulation of interactions with nuclear receptor coactivators [4]: only weakly stimulates

CC(C)C(O)CC[C@@H](C)[C@H]1CC[C@H]2[C@@H]3CC=C4C[C@@H](O)CC[C@]4(C)[C@H]3CC[C@]12C (some centres unmarked) [24-hydroxycholesterol]
induction of ABCA1 expression [1]: induce ABCA1 expression
repression of iNOS activation [2]: repress iNOS activation

CC(/C=C/C(=O)NO)=C\[C@@H](C)C(=O)c1ccc(N(C)C)cc1 [Trichostatin A]
effect on rosiglitazone-dependent transrepression of iNOS [5]: reversed rosiglitazone-dependent transrepression of iNOS

COC(=O)c1ccccc1N[C@@H](Cc1ccc(OCCc2nc(-c3ccccc3)oc2C)cc1)C(=O)O [GW7845]
effect on LPS induction of Ccl3, Ccl7, Cxcl10 and Tgtp [6]: repression of the LPS response

C[C@H](CC[C@@H]1OC1(C)C)[C@H]1CC[C@H]2[C@@H]3CC=C4C[C@@H](O)CC[C@]4(C)[C@H]3CC[C@]12C [24(S), 25-epoxycholesterol]
induction of ABCA1 expression [1]: induce ABCA1 expression
repression of iNOS activation [2]: repress iNOS activation

O=C(O)Cc1cccc(OCCCN(Cc2cccc(C(F)(F)F)c2Cl)CC(c2ccccc2)c2ccccc2)c1 [GW3965]
LXR recruitment on the iNOS promoter ([7]; GW3965 1 μM, LPS 1 h (FIG. 10C)): ligand-dependent and NCoR-dependent LXR recruitment
LPS-stimulated release of NCoR from the iNOS promoter ([7]; peritoneal macrophages, GW3965 1 μM (FIG. 10D)): inhibits
effect of NCoR-specific siRNA on ligand-dependent repression of iNOS promoter activation ([8]; GW3965 1 μM (FIG. 10B)): abolishes
effect of Ubc9-specific siRNA on ligand-dependent repression of iNOS promoter activation ([8]; GW3965 1 µM (FIG. 11B)): significantly impairs
effect of NCoR-specific siRNA on ligand-dependent repression of LPS-induced iNOS expression ([2]; peritoneal macrophages, GW3965 1 μM, LPS 1 mg/ml 6 h (FIG. 10A)): abolishes
effect of Ubc9-specific siRNA on ligand-dependent repression of LPS-induced iNOS expression ([2]; peritoneal macrophages, GW3965 1 μM, LPS 1 mg/ml 6 h (FIG. 11A)): significantly impairs

CN(CCOc1ccc(C[C@H](Nc2ccccc2C(=O)c2ccccc2)C(=O)O)cc1)c1ccccn1 [GW1929]
repression of LPS induced iNOS promoter activity [9]: very weak repressor
transactivation activity [10]: strong transactivation activity
